This note sets out measurements from PMC6452685, “Lysyl-tRNA synthetase as a drug target in malaria and cryptosporidiosis” (Proceedings of the National Academy of Sciences of the …, 2019).

The structures appear in SMILES notation.

One test deals with T1, CYP2C19 (Homo sapiens, UniProt P33261).
T1 construct: purchased Cypex, Dundee, UK; host or cells: bacterial membranes (bactosomes)
Briefly: Fluorescence-based CYP inhibition, CYP2C19. It is filed as in vitro ADME. The protocol: 4.7 F lu or e s ce nce-based CYP I nhibition usin g recombinantly expressed CYP b actosomes Fl uorogeni c C YP i nhi bi t i on s t udi es w ere c ondu ct ed at 37 °C i n 96-well, flat-bot t om, cl ear p ol y s t y rene pl at es. I ncubat i on mi xt ures cont ai ni ng Eas y C YP bact os omes (1000 pmol /ml , 10 mg /ml C y pex TM, Dundee, UK), fl uorogeni c substrate (Cypex TM) and 50 mM potas s i um phosphat e buffer (p H 7. 4) w er e prepared at t he fol l ow i ng fi nal concent rat i ons : C YP1A2, 5 pmol /ml + 35 µ M et hox y res orufi n (ER) ; CYP2C9, 10 pm ol/ml + 30 µM 7-methoxy-4-(tri fl uo romethy l )-coumari n (MFC ); C YP 2C 19, 5 pm ol /ml + 25 µM 3-cy ano-7-eth oxycoumarin (CEC); C YP 2D 6, 10 pmol /ml + 6 µM 7-meth oxy-4-(ami nomethy l )- coumari n (MAMC ); C YP 3A4, 10 pmol /ml + 1 µM diethoxyfluorescein (DEF) and 10 pmol /ml + 15 µM 7-benz y l ox y qui nol i ne (BQ ). […] 0125 ( 1A2 and 2C 9 onl y ) o r 0. 025 mg /ml (al l ot her i s oforms ). […] Positive control inhibitor, miconazole, was prepared as a 500 µM s olution in DMSO and similarly diluted.
For eac h i sofo rm, 2 20 µl of i ncubati on mi x was added to each wel l of a 96-well, flat-bot t om, cl ear pol y s t y rene pl at e. Al i quot s (5 µl) of each compound 5 conce ntrati on was then mi x ed wi th 220 µl of the incubation mix and pre-incubated at 37 °C for 5 min (final test compound concentration range: […]

Test [1] relates to P. falciparum male/female gamete formation. Briefly: P. falciparum male/female gamete formation. It is filed as cell-based. As to conditions: Plasmodium falciparum.
Procedure: Thi s i s bas ed on methods previ ousl y reported (14). Mature P. falciparum stage V gametocytes (NF54)
were incubated with test compound for 24 h at 3 7°C i n 384-well plates containing complete culture
medi um (RPMI 1640, 25 mM HEPES, 2 g/l D-glucose, 2 g/l sodium bicarbonate, 50 mg/l
Gametogenesis was triggered by dis pens i ng 10 µl ookinete medium (RPMI 1640, 25 mM HEPES, 2 g/l
D-glucose, 2 g/l sodium bicarbonate, 50 mg/l hy pox ant hi ne, 100 µM xanthurenic acid) also
contai ni ng 2. 7 µg/ml anti-Pfs25-Cy3 into each well and cooling the plate on a metal block at 4 °C fo r
4 mi n. Fi fteen s l ater male gametogenesis was recorded by b ri ghtfi el d i magi ng usi ng ti m e s 6 object i v e
and then the pl ate stored at 2 6 °C for a fu rther 24 h to allow female gametes to develop. Female
gamete formation was assessed by fluorescence m icroscopy using x6 objective to identify anti-Pfs25-
gentian violet negative and positive controls.
3.1 3 Act iv it y a gains t Cry pt os pori diu m h omi nis (CALIBR)
Thi s i s bas ed on methods previ ousl y reported (10).
A further test addresses PfKRS1 (Plasmodium falciparum, UniProt Q8IDJ8). Nature of the test: PfKRS1 hit discovery high-throughput screen (Kinase-Glo). It is filed as biochemical. Also on record: recombinant PfKRS1 (77–583 and 80–583); 6xHis (N); made in house; host or cells: E. coli Rosetta BL21(DE3), vector pAVA0421. As to conditions: single point 7.5 µM. The protocol: By using the luciferase ATP consumption (Kinase-Glo) assay platform with sub-Km substrate concentrations (thus biasing the assay toward identifying ATP-competitive inhibitors), the GlaxoSmithKline malaria actives set of ∼13,000 compounds (the Tres Cantos Antimalarial Set) ([19]) was screened against recombinant PfKRS1, leading to the discovery of a PfKRS1 inhibitor, compound 2 (Fig. 1). […] Compound 2 suffered from high metabolic instability (CLi > 50 mL⋅min^−1⋅g^−1 in mouse liver microsomes); however, in contrast to cladosporin 1, it was chemically tractable. […]
Assays were performed in 384-well format i n buffer (as des cri bed i n Tabl e S3), 60 µM lysine, and 75 nM PfKRS1. Compounds were initially screened at single point concentrations of 7.5 µM and hits were re peated three times. Plates were incubated for 180 mi ns at 37°C after a ddition of compounds. Reactions were terminated by the addi ti on of Ki nase-Glo® reagent and read on an E nVi si on pl ate reader (Perki nEl mer, W al tham, MA). […]
Us i ng the EnzChek as s ay pl atform the I C50 value for compound 5 was determined at saturating concentrati ons of both s ubs trates , 0. […] Assay ready plates containing different concent rations of compound 5 were prepa red usi ng an Ec ho® 5 50 acousti c di spenser (Labcyte Inc.). […]

T1 sequence (P33261 whole entry): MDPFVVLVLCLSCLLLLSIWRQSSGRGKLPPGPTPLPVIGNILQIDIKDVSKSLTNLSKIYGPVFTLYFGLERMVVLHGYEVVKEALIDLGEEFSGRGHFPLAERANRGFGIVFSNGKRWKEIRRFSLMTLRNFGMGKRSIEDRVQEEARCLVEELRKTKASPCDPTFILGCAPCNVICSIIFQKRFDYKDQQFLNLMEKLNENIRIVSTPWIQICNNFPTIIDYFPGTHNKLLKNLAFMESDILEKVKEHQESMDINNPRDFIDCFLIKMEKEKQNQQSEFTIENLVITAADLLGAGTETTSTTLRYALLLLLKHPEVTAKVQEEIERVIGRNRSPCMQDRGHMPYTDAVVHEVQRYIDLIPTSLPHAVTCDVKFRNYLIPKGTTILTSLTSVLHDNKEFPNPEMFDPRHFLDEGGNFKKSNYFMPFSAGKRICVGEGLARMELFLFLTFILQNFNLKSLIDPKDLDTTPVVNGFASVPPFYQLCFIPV
Sequence of PfKRS1 (Q8IDJ8 77-583): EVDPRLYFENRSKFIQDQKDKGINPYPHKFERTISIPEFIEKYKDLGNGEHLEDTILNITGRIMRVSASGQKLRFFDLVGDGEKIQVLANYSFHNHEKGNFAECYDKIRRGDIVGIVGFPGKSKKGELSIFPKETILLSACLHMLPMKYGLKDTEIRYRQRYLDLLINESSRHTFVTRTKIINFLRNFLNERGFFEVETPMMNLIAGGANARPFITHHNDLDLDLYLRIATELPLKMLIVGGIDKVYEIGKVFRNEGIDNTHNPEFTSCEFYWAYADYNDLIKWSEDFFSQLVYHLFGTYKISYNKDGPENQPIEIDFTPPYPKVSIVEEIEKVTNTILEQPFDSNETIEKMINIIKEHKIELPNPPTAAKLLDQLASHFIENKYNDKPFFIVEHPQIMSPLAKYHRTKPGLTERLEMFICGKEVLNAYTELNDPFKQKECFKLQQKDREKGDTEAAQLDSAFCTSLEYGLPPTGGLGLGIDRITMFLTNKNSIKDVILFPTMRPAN

On to `O=C(NCC1(O)CCC(F)(F)CC1)c1cc(=O)c2cc(F)ccc2o1` [Compound 5], for which the IC50 on CYP2C19 was > 10 µM. For the same compound, the EC50 in test [1] was > 1 µM. Take `O=C(NCC1CCCCC1)c1cc(=O)c2ccccc2o1` [Compound 2]: the “inhibition of PfKRS1 in high-throughput screen” value at PfKRS1 was 71-91%.

The IC50 is the concentration needed to halve the response being measured. Low values mean higher potency, high ones lower potency. Usually EC50 stands for the concentration giving half of the maximal effect.
